The target in assay [1] is T1, 5-hydroxytryptamine receptor 1A (Homo sapiens) (UniProt P08908).
T1 sequence (whole entry): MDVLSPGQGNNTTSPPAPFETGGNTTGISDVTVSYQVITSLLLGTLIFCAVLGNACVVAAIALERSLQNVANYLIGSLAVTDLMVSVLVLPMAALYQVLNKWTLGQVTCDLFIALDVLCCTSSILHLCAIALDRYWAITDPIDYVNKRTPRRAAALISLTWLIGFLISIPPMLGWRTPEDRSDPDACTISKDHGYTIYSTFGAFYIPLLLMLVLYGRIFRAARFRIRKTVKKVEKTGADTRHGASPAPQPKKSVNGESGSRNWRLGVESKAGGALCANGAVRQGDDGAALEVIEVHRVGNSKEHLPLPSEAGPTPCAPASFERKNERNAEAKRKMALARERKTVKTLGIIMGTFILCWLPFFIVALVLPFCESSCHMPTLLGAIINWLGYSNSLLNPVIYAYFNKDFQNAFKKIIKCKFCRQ
The following applies: HeLa.

Assay [2] has as its target T2, Alpha-1A adrenergic receptor (Rattus norvegicus) (UniProt P43140).
T2 sequence (whole entry): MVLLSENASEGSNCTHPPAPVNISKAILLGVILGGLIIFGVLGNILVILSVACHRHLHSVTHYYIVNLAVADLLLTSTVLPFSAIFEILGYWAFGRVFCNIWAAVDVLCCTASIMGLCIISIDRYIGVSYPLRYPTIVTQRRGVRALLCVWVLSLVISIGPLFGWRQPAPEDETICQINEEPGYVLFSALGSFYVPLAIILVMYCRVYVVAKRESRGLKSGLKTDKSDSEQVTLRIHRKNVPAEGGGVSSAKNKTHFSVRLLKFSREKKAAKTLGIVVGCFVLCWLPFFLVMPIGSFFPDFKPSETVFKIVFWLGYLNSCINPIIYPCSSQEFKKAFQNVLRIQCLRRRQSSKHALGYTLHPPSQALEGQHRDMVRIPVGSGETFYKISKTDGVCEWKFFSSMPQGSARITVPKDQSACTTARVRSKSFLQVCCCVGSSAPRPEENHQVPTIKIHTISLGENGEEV
Nature of the assay: Antagonist activity at alpha-1a adrenergic receptor in Wistar rat prostatic vas deferens assessed as inhibition of (-)-noradrenaline-induced contraction.

For assay [3], the target named is T3, Alpha-1D adrenergic receptor (Rattus norvegicus) (UniProt P23944).
T3 sequence (whole entry): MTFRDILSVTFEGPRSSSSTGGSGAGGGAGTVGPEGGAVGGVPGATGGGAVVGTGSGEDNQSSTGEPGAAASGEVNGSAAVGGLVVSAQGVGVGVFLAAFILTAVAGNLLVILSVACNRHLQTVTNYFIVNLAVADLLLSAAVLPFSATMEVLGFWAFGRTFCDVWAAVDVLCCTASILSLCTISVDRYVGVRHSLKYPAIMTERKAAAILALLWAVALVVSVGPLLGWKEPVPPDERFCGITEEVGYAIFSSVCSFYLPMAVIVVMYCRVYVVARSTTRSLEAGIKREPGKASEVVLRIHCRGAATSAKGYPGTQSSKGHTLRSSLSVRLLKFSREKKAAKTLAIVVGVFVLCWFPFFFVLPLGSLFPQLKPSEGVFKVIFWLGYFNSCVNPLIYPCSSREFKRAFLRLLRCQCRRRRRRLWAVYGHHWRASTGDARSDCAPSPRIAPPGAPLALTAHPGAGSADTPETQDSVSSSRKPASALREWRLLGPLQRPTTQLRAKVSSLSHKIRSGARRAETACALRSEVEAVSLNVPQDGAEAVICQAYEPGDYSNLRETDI
Description: Antagonist activity at alpha-1d adrenergic receptor in Wistar rat thoracic aorta assessed as inhibition of (-)-noradrenaline-induced contractions.

The target of assay [4] is T4, Alpha-1A adrenergic receptor (Homo sapiens, UniProt P35348).
T4 sequence (P35348 whole entry): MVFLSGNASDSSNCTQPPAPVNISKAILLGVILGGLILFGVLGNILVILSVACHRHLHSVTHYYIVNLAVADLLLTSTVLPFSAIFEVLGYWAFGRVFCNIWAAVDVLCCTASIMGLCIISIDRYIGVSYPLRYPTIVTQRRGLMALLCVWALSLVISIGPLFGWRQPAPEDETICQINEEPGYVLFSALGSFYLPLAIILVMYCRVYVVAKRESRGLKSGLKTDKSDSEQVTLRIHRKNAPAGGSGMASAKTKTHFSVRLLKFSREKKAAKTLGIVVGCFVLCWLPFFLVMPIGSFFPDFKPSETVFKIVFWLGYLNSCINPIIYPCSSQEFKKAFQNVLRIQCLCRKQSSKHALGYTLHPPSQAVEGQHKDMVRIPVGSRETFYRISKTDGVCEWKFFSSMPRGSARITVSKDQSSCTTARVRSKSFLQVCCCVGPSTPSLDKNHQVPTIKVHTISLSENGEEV
Nature of the assay: biochemical.
Description: Displacement of [3H] prazosin from human cloned adrenoceptor alpha 1A expressed in CHO cell membrane incubated for 30 mins by liquid scintillation counting

The target of assay [5] is T5, 5-hydroxytryptamine receptor 1A (Homo sapiens, UniProt P08908).
T5 sequence (P08908 whole entry): T1 sequence (whole entry)
Nature of the assay: Displacement of [3H]8-OH-DPAT from human cloned 5HT-1AR transfected in HeLa cells incubated for 30 mins by liquid scintillation counter. The format is cell-based.

Assay [6] has as its target T6, Alpha-1B adrenergic receptor (Rattus norvegicus) (UniProt P15823).
T6 sequence (whole entry): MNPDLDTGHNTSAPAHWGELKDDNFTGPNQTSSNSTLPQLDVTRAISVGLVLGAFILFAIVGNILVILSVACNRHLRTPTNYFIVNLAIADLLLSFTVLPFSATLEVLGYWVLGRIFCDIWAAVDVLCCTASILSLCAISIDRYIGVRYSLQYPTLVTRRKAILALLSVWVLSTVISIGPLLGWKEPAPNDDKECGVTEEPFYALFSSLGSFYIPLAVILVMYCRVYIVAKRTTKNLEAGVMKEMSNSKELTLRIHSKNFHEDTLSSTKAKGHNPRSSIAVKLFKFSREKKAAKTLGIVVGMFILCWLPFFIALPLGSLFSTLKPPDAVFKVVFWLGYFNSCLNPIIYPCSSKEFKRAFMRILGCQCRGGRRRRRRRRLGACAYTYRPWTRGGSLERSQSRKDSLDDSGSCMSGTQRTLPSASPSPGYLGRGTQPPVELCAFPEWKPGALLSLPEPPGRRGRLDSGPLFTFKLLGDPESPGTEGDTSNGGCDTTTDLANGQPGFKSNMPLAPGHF
Description: Antagonist activity at alpha-1b adrenergic receptor in Wistar rat spleen assessed as inhibition of (-)-phenylephrine-induced contraction. The format is tissue-based.

Assay [7] deals with T1, 5-hydroxytryptamine receptor 1A (Homo sapiens). Description: Agonist activity at human recombinant 5HT1A receptor expressed in human HeLa cells assessed as increase in [35S]GTPgammaS binding incubated for 20 mins by liquid scintillation counter relative to control. The format is functional, cell-based.

In assay [1], `c1ccc(OCCNCC2COC(c3ccccc3)(c3ccccc3)OC2)cc1` registered a pD2 of 5.87. Further, the pKb in assay [2] worked out at 5.52; in assay [3], 6.76; in assay [6], 6.76. Besides, the values for the Ki in assay [4] and in assay [5] were 288 nM and 23.4 nM, respectively. For the same molecule, the Emax in assay [7] turned out to be 88.7%.

Molecule `COc1ccccc1OCCNCC1CCOC(c2ccccc2)(c2ccccc2)O1` (configuration not stated) yielded a pD2 in assay [1] of 8.49. Also, the negative-log Kb (pKb) was 6.99 in assay [2], 8.68 in assay [3] and 7.19 in assay [6]. Moreover, the Ki was 24.5 nM in assay [4] and 0.776 nM in assay [5]. Further, the Emax in assay [7] was 65.9%.

Regarding `COc1ccccc1OCCNCC[C@@H]1CO[C@H](C(c2ccccc2)c2ccccc2)O1` (relative stereo), in assay [1], the pD2 is 5.86. Moreover, the pKb in assay [2] turned out to be 6.58; in assay [3] it was 7.67; in assay [6], 6.91. Moreover, the Ki in assay [4] was 50.1 nM; in assay [5] it was 25.7 nM. Moreover, in assay [7], the Emax turned out to be 82.1%.

`COc1ccccc1OCCNCCC1COC(c2ccccc2)(c2ccccc2)O1` (configuration not stated) returned a pD2 in assay [1] of 6.16. The pKb in assay [2] amounted to 6.74; in assay [3], 8.17; in assay [6] it was 6.93. The Ki in assay [4] was 7.24 nM; in assay [5] it was 0.501 nM. The Emax in assay [7] came to 22.1%.

For `COc1ccccc1OCCNCCOC(c1ccccc1)c1ccccc1`, in assay [1], the pD2 stood at 7.38. In addition, the figures for the pKb in assay [2], in assay [3] and in assay [6] were 6.18, 7.75 and 7.11, respectively. For the same molecule, the Ki in assay [4] was 44.7 nM; in assay [5], 7.24 nM. Also, the Emax in assay [7] is 77.3%.

On to `COc1ccccc1OCCNCC[C@H]1CO[C@H](C(c2ccccc2)c2ccccc2)O1` (relative stereo), for which the pD2 in assay [1] was found to be 6.24. In addition, the pKb amounted to 6.23 in assay [2], 7.25 in assay [3] and 7.13 in assay [6]. Also, the figures for the Ki in assay [4] and in assay [5] were 60.3 nM and 15.5 nM, respectively. Further, in assay [7], the Emax turned out to be 53%.

Turning to `OCC(CNCCOc1ccccc1)OC(c1ccccc1)c1ccccc1` (configuration not stated), the pD2 in assay [1] was 7.51. Also, the pKb in assay [2] was under 5; in assay [3], 7.07; in assay [6] it was 6.98. For the same molecule, the Ki was 141 nM in assay [4] and 4.57 nM in assay [5]. Also, in assay [7], the Emax is 69.5%.

In turn, `c1ccc(OCCNCCOC(c2ccccc2)c2ccccc2)cc1` came in with a pD2 in assay [1] of 7.85. Moreover, the results for the negative logarithm of the Kb (pKb) in assay [2], in assay [3] and in assay [6] were 7.65, 7.73 and 7.01, respectively. For the same molecule, the Ki is 17 nM in assay [4] and 1.35 nM in assay [5]. Moreover, the Emax in assay [7] is 78.9%.

In assay [1], `COc1ccccc1OCCNCC(CO)OC(c1ccccc1)c1ccccc1` (configuration not stated) yielded a pD2 of 7.53. Also, the figures for the pKb in assay [2], in assay [3] and in assay [6] were 6.51, 7.46 and 7.02, respectively. Moreover, the Ki in assay [4] is 83.2 nM; in assay [5] it was 1.55 nM. In addition, in assay [7], the Emax turned out to be 90.2%.

The molecule `COc1ccccc1OCCNCC1COC(c2ccccc2)(c2ccccc2)OC1.O=C(O)C(=O)O` displayed a pD2 in assay [1] of 9.22. Further, the pKb in assay [2] came out at 5.98; in assay [3] it was 7.06; in assay [6], 6.8. For the same molecule, the Ki in assay [4] was 33.9 nM; in assay [5] it was 1.62 nM. Moreover, the maximal response (Emax) in assay [7] came to 91.6%.

Consider `c1ccc(OCCNCC2CCOC(c3ccccc3)(c3ccccc3)O2)cc1` (configuration not stated), for which the pD2 in assay [1] stood at 7.85. For the same molecule, the pKb in assay [2] is 6.12; in assay [3], 7.55; in assay [6] it was 6.97. The Ki in assay [4] is 38.9 nM; in assay [5] it was 1.86 nM. Moreover, in assay [7], the Emax amounted to 79.5%.

These data come from ChEMBL document CHEMBL4350985, “1,3-Dioxane as a scaffold for potent and selective 5-HT1AR agonist with in-vivo anxiolytic, anti-depressant and anti-nociceptive activity” (Eur J Med Chem, 2019).
